Measured values from patent publication US20090275565A1, “Substituted aralkyl derivatives” (CADILA HEALTHCARE LIMITED, priority 2002, published 2009).
Where a name gives a salt, the structure may show the parent alone.

Columns and labels:
C57BL/KsJ-db/db mice = assay: Serum glucose lowering activity in db/db mice models; type: in vivo; settings: male C57BL/KsJ-db/db mice, oral gavage, 3 mg/kg/day, 6 days, one hour after dosing on 6th day
Method: • iii) Serum glucose lowering activity in db/db mice models
Homozygous animal C57BL/KsJ-db/db mice are obese, hyperglycemic, hyperinsulinemic and insulin resistant (J. Clin. Invest., 85, 962-967, 1990), whereas heterozygous are lean and normoglycemic. The homozygous animals very closely mimic the human type II diabetes when blood sugar levels are not sufficiently controlled. Since this type of model resembles human type II diabetes mellitus, the compounds of the invention were tested for their antidiabetic activity in this model.
Male C57 BL/KsJ-db/db mice of 8 to 14 weeks age, having body weight range of 40 to 60 grams, procured from the Jackson Laboratory, USA, were used in the experiment.
Test compounds were suspended on 0.25% carboxymethyl cellulose or dissolved in water when the compound is water soluble and administered to test group containing 6 animals at a dose of 0.001 mg to 50 mg/kg through oral gavage daily for 6 days. The control group received vehicle (dose 10 ml/kg). On the 6th day, one hour after the drug dosing, blood was collected from retro-orbital sinus and the serum was analyzed for glucose and triglycerides were measured using commercial kits (Zydus-Cadila, Pathline, Ahmedabad, India). The serum glucose and triglyceride lowering activities of the test compound was calculated according of the formula: […]

[1] = test system: hypercholesterolemic rat models; assay: Cholesterol lowering activity in hypercholesterolemic rat models; type: in vivo; settings: hypercholesterolemic male Sprague Dawley rats, oral, 3 mg/kg/day, serum
Method: • ii) Cholesterol lowering activity in hypercholesterolemic rat models
Male Sprague Dawley rats stock bred in Zydus animal house were maintained under 12 hour light and dark cycle at 25±1° C. Rats of 100-150 g body weight range were used for the experiment. Animals were made hypercholesterolemic by feeding 1% cholesterol and 0.5% sodium cholate mixed with standard laboratory chow (NIN, Hyderabad, India) and water ad libitum for 5 days. The animals were maintained on the same diet throughout the experiment [Petit D., Bonnefis M. T., Rey C and Infante R., Effects of ciprofibrate on liver lipids and lipoprotein synthesis in normal and hyperlipidemic rats, Atherosclerosis, 74, 215-225 (1988)].
The test compounds were administered orally at a dose 0.03 to 50 mg/kg/day for 4 days, after suspending it in 0.25% CMC or dissolving it in water when compound is water-soluble. Control group was treated with vehicle alone (0.25% of Carboxymethylcellulose; dose 10 ml/kg).
The blood samples were collected in fed state on 0th and 1 hour after drug administration on 6th day of the treatment. The blood was collected from the retro-orbital sinus through non-heparinised capillary and the serum samples were analyzed for triglyceride and total cholesterol using commercial kits (Zydus-Cadila, Pathline, Ahmedabad, India). LDL and HDL by commercial kits (point Scientific, USA). LDL and VLDL cholesterol were calculated from the data obtained for total cholesterol, HDL and triglyceride.
The reduction in VLDL cholesterol is calculated according to the formula.
VLDL cholesterol in mg/dl=Total cholesterol−HDL cholesterol−LDL cholesterol

Swiss albino mice = assay: Serum triglyceride and total cholesterol lowering activity in Swiss albino mice; type: in vivo; settings: male Swiss albino mice, oral, 3 mg/kg/day, 6 days, fed state 1 hour after dosing on 6th day
Method: Male Swiss albino mice (SAM) were bred in Zydus animal house. All these animals were maintained under 12 hour light and dark cycle at 25±1° C. Animals were given standard laboratory chow (NIN, Hyderabad, India) and water ad libitum. SAM of 20-30 g body weight range were used.
The test compounds were administered orally to Swiss albino mice at 0.001 to 50 mg/kg/day dose for 6 days. The compound was administered after suspending it in 0.25% CMC or dissolving it in water, when compound is water-soluble. Control mice were treated with vehicle (0.25% of Carboxymethylcellulose; dose 10 ml/kg).
The blood samples were collected on 0th day and in fed state 1 hour after drug administration on 6th day of the treatment. The blood was collected in non heparinised capillary and the serum was analyzed for triglyceride and total cholesterol (Wieland, O. Methods of Enzymatic analysis. Bergermeyer, H., O., Ed., 1963. 211-214; Trinder, P. Ann. Clin. Biochem. 1969. 6: 24-27). Measurement of serum triglyceride and total cholesterol was done using commercial kits (Zydus-Cadila, Pathline, Ahmedabad, India).
Percentage reduction in triglycerides/total cholesterol were calculated according to the formula: […]

Compound: CCO[C@H](CO)Cc1ccc(OCCc2nc(-c3ccccc3)oc2C)cc1 [Compound 64, (2S)-Ethoxy-3-{4-[2-(5-methyl-2-phenyl-oxazol-4-yl)-ethoxy]-phenyl}-propan-1-ol]
- Plasma TG reduction (%) (C57BL/KsJ-db/db mice): 74%
- Serum Glucose reduction (%) (C57BL/KsJ-db/db mice): 56%

Compound: CCO[C@H](CN)Cc1ccc(OCCc2nc(-c3ccccc3)oc2C)cc1 (as salt: bisulphate) [Compound 167, Bisulphate Salt of 2S-Ethoxy-3-{4-[2-(5-methyl-2-phenyl-oxazol-4-yl)-ethoxy]-phenyl}-propyl amine]
- melting point: 175 °C

Compound: CCOC[C@H](Cc1ccc(OCCc2nc(-c3ccccc3)oc2C)cc1)OCC [Compound 84, 1-Ethoxy-(2S)-ethoxy-3-[4-{2-(5-methyl-2-phenyl-oxazol-4-yl)-ethoxy}-phenyl]-propane]
- Plasma TG reduction (%) (C57BL/KsJ-db/db mice): 47%
- Serum Glucose reduction (%) (C57BL/KsJ-db/db mice): 47%

Compound: CCO[C@H](CN)Cc1ccc(OCc2nc(-c3ccccc3)oc2C)cc1 [Compound 141, (2S)-Ethoxy-3-{4-[5-methyl-2-phenyl-oxazol-4-ylmethoxy]-phenyl}-propylamine]
- Total cholesterol reduction (%) [1]: 61%

Compound: CCO[C@H](CN)Cc1ccc(OCc2nc(-c3ccccc3)oc2C)cc1.O=C(O)C(=O)O
- melting point: 135 °C

Compound: CCO[C@H](COC(=O)CBr)Cc1ccc(OCCc2nc(-c3ccccc3)oc2C)cc1 [Compound 90, (2S)-Ethoxy-3-{4-[2-(5-methyl-2-phenyl-oxazol-4-yl)-ethoxy]-phenyl}-propyl bromo-acetate]
- Total cholesterol reduction (%) [1]: 56%

Compound: CCO[C@@H](Cc1ccc(OCc2nc(-c3cccs3)oc2C)cc1)C(=O)O [Compound 27, (2S)-Ethoxy-3-[4-(5-methyl-2-thiophen-2-yl-oxazol-4-ylmethoxy)-phenyl]-propanoic acid]
- Total cholesterol reduction (%) [1]: 44%

Compound: CCO[C@H](CN)Cc1ccc(OCCc2nc(-c3ccccc3)oc2C)cc1 [Compound 134, (2S)-Ethoxy-3-{4-[2-(5-methyl-2-phenyl-oxazol-4-yl)-ethoxy]-phenyl}-propylamine]
- % Triglyceride lowering (Swiss albino mice): 54%
